Test results: ChEMBL document CHEMBL1201862, “PubChem BioAssay data set” (2004)
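96-well plates; 48 h exposure; 5 concentrations. Endpoints by linear interpolation between flanking doses. Not reached: highest tested concentration assigned. GI50 is the concentration that inhibits growth by half.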 Activity calls are given as the source filed them. Cut-off read from the data, not from the text of the source: active = GI50 up to about 1.1 µM and inactive = higher.

Assays:
Assay in all cases: DTP human tumour cell line panel, 48 h
[1] = system: HOP-92
[2] = system: HT-29
[3] = system: T47D
[4] = system: A549
[5] = system: ACHN
[6] = system: HCT-15
[7] = system: OVCAR-8
[8] = system: IGROV-1
[9] = system: 786-0
[10] = system: LOX IMVI
[11] = system: COLO 205
[12] = system: NCI-H23
[13] = system: MDA-MB-435
[14] = system: SF-295
[15] = system: U-251
[16] = system: UO-31
[17] = system: NCI-H460
[18] = system: UACC-62
[19] = system: SNB-75
[20] = system: UACC-257
[21] = system: EKVX
[22] = system: KM12
[23] = system: SNB-19
[24] = system: Hs-578T
[25] = system: Malme-3M
[26] = system: SK-MEL-5
[27] = system: SK-MEL-2
[28] = system: OVCAR-4
[29] = system: DU-145
[30] = system: NCI-H522
[31] = system: OVCAR-3
[32] = system: SK-OV-3
[33] = system: HCC 2998
[34] = system: MDA-MB-231
[35] = system: MCF7
[36] = system: SN12C
[37] = system: CAKI-1
[38] = system: SK-MEL-28
[39] = system: CCRF-CEM
[40] = system: K562
[41] = system: BT-549
[42] = system: HL-60
[43] = system: NCI-H226
[44] = system: RXF 393
[45] = system: SF-539
[46] = system: OVCAR-5
[47] = system: PC-3
[48] = system: NCI/ADR-RES
[49] = system: SR
[50] = system: SW-620
[51] = system: TK-10
[52] = system: MDA-N
[53] = system: MOLT-4
[54] = system: HCT-116
[55] = system: RPMI-8226
[56] = system: SF-268
[57] = system: HOP-62

Nc1nc(Cl)cc(NCC2(CO)CCC2)n1
GI50 [1]: > 100 µM (inactive) | GI50 [2]: > 100 µM (inactive) | GI50 [3]: 29.7 µM (inactive) | GI50 [4]: > 100 µM (inactive) | GI50 [5]: > 100 µM (inactive) | GI50 [6]: > 100 µM | GI50 [7]: > 100 µM (inactive) | GI50 [8]: > 100 µM (inactive) | GI50 [9]: > 100 µM (inactive) | GI50 [10]: > 100 µM (inactive) | GI50 [11]: > 100 µM (inactive) | GI50 [12]: > 100 µM (inactive) | GI50 [13]: > 100 µM (inactive) | GI50 [14]: > 100 µM (inactive) | GI50 [15]: > 100 µM (inactive) | GI50 [16]: > 100 µM (inactive) | GI50 [17]: > 100 µM (inactive) | GI50 [18]: 99.3 µM (inactive) | GI50 [19]: > 100 µM (inactive) | GI50 [20]: > 10 µM (inactive) | GI50 [21]: 75.2 µM (inactive) | GI50 [22]: > 100 µM (inactive) | GI50 [23]: > 100 µM (inactive) | GI50 [24]: > 100 µM (inactive) | GI50 [25]: > 100 µM (inactive) | GI50 [26]: > 100 µM (inactive) | GI50 [27]: > 100 µM (inactive) | GI50 [28]: > 100 µM (inactive) | GI50 [29]: > 100 µM (inactive) | GI50 [30]: > 100 µM (inactive) | GI50 [31]: > 100 µM (inactive) | GI50 [32]: > 100 µM (inactive) | GI50 [33]: > 100 µM (inactive) | GI50 [34]: > 100 µM (inactive) | GI50 [35]: > 100 µM (inactive) | GI50 [36]: > 100 µM (inactive) | GI50 [37]: > 100 µM (inactive) | GI50 [38]: > 100 µM (inactive) | GI50 [39]: > 100 µM (inactive) | GI50 [40]: > 100 µM (inactive) | GI50 [41]: > 100 µM (inactive) | GI50 [42]: > 100 µM (inactive) | GI50 [43]: > 100 µM (inactive) | GI50 [44]: > 100 µM (inactive) | GI50 [45]: > 100 µM (inactive) | GI50 [46]: > 100 µM (inactive) | GI50 [47]: > 100 µM (inactive) | GI50 [48]: > 100 µM (inactive) | GI50 [49]: > 100 µM (inactive) | GI50 [50]: > 100 µM (inactive) | GI50 [51]: > 100 µM (inactive) | GI50 [52]: > 100 µM (inactive) | GI50 [53]: > 100 µM (inactive) | GI50 [54]: > 100 µM (inactive) | GI50 [55]: > 100 µM (inactive) | GI50 [56]: > 100 µM (inactive) | GI50 [57]: > 100 µM (inactive)
